Measurements: US6057340A, “Oxazole derivatives as serotonin-1A receptor agonists” (American Home Products Corporation, priority 1999, dated 2000)

Target: T1, human 5HT1A receptor (Homo sapiens, UniProt P08908)
T1 construct: expressed in transfected cells
T1 sequence (P08908 1-422): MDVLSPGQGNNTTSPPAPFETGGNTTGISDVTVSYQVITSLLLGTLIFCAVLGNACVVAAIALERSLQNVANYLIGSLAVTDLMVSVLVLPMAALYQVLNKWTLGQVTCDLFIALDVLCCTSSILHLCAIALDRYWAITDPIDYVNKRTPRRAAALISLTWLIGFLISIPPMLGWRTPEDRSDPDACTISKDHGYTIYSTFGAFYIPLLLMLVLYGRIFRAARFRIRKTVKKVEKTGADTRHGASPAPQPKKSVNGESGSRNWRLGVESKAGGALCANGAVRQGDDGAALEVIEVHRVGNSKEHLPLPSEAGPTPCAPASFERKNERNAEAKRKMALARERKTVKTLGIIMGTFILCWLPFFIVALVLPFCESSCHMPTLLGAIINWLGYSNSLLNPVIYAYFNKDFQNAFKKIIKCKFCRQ
Test: displacement of [^3 H] 8-OH-DPAT binding in CHO cells stably transfected with human 5HT1A receptor
Conditions: final ligand concentration 1.5 nM, 30 minute incubation at room temperature
Experimental: The compounds of this invention are 5-HT1A agonists. Affinity for the serotonin 5-HT1A receptor was established in a standard pharmacological test procedure which measures the compound's ability to displace [^3 H] 8-OH-DPAT binding in CHO cells stably transfected with human 5HT1A receptor. Stably transfected CHO cells are grown in DMEM containing 10% heat inactivated FBS and non-essential amino acids. Cells are scraped off the plate, transferred to centrifuge tubes, and washed twice by centrifugation (2000 rpm for 10 min., 4° C.) in buffer (50 mM Tris pH 7.5). The resulting pellets are aliquoted and placed at -80° C. On the day of assay, the cells are thawed on ice and resuspended in buffer. The binding assay is performed in a 96 well microtiter plate in a total volume of 250 μL. Non-specific binding is determined in the presence of […], final ligand concentration is 1.5 nM. Following a 30 minute incubation at room temperature, the reaction is terminated by the addition of ice cold buffer and rapid filtration through a GF/B filter presoaked for 30 minutes in 0.5% PEI. Compounds are initially tested in a single point assay to determine percent inhibition at […], and Ki values are determined for the active compounds.

With `COc1ccccc1C1CCN(Cc2oc(C3CCCCC3)nc2Cc2ccccc2)CC1` [Example 9, 1-(4-Benzyl-2-cyclohexyl-oxazol-5-ylmethyl)-4-(2-methoxy-phenyl)-piperidine] as the compound, how does the Ki read?
Its Ki is 4.4 nM.
